Experimental data taken from the supplement of paper PMC11451515.

Tested on: P12-Ichikawa
Experiment: cell viability relative to DMSO control; higher = less cytotoxic
Details: 48 h
Procedure, shortened: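 Library compounds in DMSO were pin-dosed in an 11-point threefold series (47 μM to 0.79 nM) onto leukemia cells in 1536-well plates (5 μl). Plates held 500 cells/well of NOMO1 or SEM or 1000 cells/well of P12-Ichikawa, each adapted for at least four passages in each medium. Luminescence was read with CellTiter-Glo One after 48 h at 37°C. Viability means the per-plate percentage relative to DMSO wells, using cell-free wells as background.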

[1] = HPLM + 10% dialyzed FBS, 0.000781 µM
[2] = HPLM + 10% dialyzed FBS, 0.00234 µM
[3] = HPLM + 10% dialyzed FBS, 0.00702 µM
[4] = HPLM + 10% dialyzed FBS, 0.0211 µM
[5] = HPLM + 10% dialyzed FBS, 0.0632 µM
[6] = HPLM + 10% dialyzed FBS, 0.19 µM
[7] = HPLM + 10% dialyzed FBS, 0.569 µM
[8] = HPLM + 10% dialyzed FBS, 1.71 µM
[9] = HPLM + 10% dialyzed FBS, 5.12 µM
[10] = HPLM + 10% dialyzed FBS, 15.4 µM
[11] = HPLM + 10% dialyzed FBS, 46.1 µM
[12] = RPMI 5 mM glucose + 10% FBS, 0.000781 µM
[13] = RPMI 5 mM glucose + 10% FBS, 0.00234 µM
[14] = RPMI 5 mM glucose + 10% FBS, 0.00702 µM
[15] = RPMI 5 mM glucose + 10% FBS, 0.0211 µM
[16] = RPMI 5 mM glucose + 10% FBS, 0.0632 µM
[17] = RPMI 5 mM glucose + 10% FBS, 0.19 µM
[18] = RPMI 5 mM glucose + 10% FBS, 0.569 µM
[19] = RPMI 5 mM glucose + 10% FBS, 1.71 µM
[20] = RPMI 5 mM glucose + 10% FBS, 5.12 µM
[21] = RPMI 5 mM glucose + 10% FBS, 15.4 µM
[22] = RPMI 5 mM glucose + 10% FBS, 46.1 µM
[23] = RPMI 5 mM glucose + 10% dialyzed FBS, 0.000781 µM
[24] = RPMI 5 mM glucose + 10% dialyzed FBS, 0.00234 µM
[25] = RPMI 5 mM glucose + 10% dialyzed FBS, 0.00702 µM
[26] = RPMI 5 mM glucose + 10% dialyzed FBS, 0.0211 µM
[27] = RPMI 5 mM glucose + 10% dialyzed FBS, 0.0632 µM
[28] = RPMI 5 mM glucose + 10% dialyzed FBS, 0.19 µM
[29] = RPMI 5 mM glucose + 10% dialyzed FBS, 0.569 µM
[30] = RPMI 5 mM glucose + 10% dialyzed FBS, 1.71 µM
[31] = RPMI 5 mM glucose + 10% dialyzed FBS, 5.12 µM
[32] = RPMI 5 mM glucose + 10% dialyzed FBS, 15.4 µM
[33] = RPMI 5 mM glucose + 10% dialyzed FBS, 46.1 µM

CC1(C)CCC(C)(C)c2cc(NC(=O)c3ccc(C(=O)O)cc3)ccc21
cell viability [1]: 73.7% | cell viability [2]: 116% | cell viability [3]: 101% | cell viability [4]: 102% | cell viability [5]: 107% | cell viability [6]: 106% | cell viability [7]: 105% | cell viability [8]: 104% | cell viability [9]: 106% | cell viability [10]: 101% | cell viability [11]: 96.4% | cell viability [12]: 102% | cell viability [13]: 103% | cell viability [14]: 93.9% | cell viability [15]: 96.2% | cell viability [16]: 103% | cell viability [17]: 97.8% | cell viability [18]: 104% | cell viability [19]: 109% | cell viability [20]: 101% | cell viability [21]: 98.9% | cell viability [22]: 88.5% | cell viability [23]: 96.2% | cell viability [24]: 104% | cell viability [25]: 98.4% | cell viability [26]: 108% | cell viability [27]: 110% | cell viability [28]: 105% | cell viability [29]: 116% | cell viability [30]: 108% | cell viability [31]: 107% | cell viability [32]: 102% | cell viability [33]: 79.6%

O=C(NOCC1CC1)c1ccc(F)c(F)c1Nc1ccc(I)cc1Cl
cell viability [1]: 92.8% | cell viability [2]: 98% | cell viability [3]: 104% | cell viability [4]: 110% | cell viability [5]: 114% | cell viability [6]: 106% | cell viability [7]: 101% | cell viability [8]: 94.8% | cell viability [9]: 84.3% | cell viability [10]: 82.2% | cell viability [11]: 79.3% | cell viability [12]: 96.6% | cell viability [13]: 102% | cell viability [14]: 105% | cell viability [15]: 103% | cell viability [16]: 110% | cell viability [17]: 98% | cell viability [18]: 97.1% | cell viability [19]: 88.7% | cell viability [20]: 74% | cell viability [21]: 60.9% | cell viability [22]: 70% | cell viability [23]: 92.9% | cell viability [24]: 106% | cell viability [25]: 98% | cell viability [26]: 112% | cell viability [27]: 109% | cell viability [28]: 114% | cell viability [29]: 110% | cell viability [30]: 112% | cell viability [31]: 91.8% | cell viability [32]: 71% | cell viability [33]: 82.6%

CN(C)c1ccc(-c2nc3c(N4CCN(CC(=O)Nc5nccs5)CC4)c(Cl)cnc3[nH]2)cc1
cell viability [1]: 109% | cell viability [2]: 107% | cell viability [3]: 118% | cell viability [4]: 110% | cell viability [5]: 113% | cell viability [6]: 117% | cell viability [7]: 115% | cell viability [8]: 109% | cell viability [9]: 108% | cell viability [10]: 102% | cell viability [11]: 103% | cell viability [12]: 113% | cell viability [13]: 114% | cell viability [14]: 116% | cell viability [15]: 131% | cell viability [16]: 109% | cell viability [17]: 125% | cell viability [18]: 111% | cell viability [19]: 115% | cell viability [20]: 118% | cell viability [21]: 95.9% | cell viability [22]: 103%

COc1cc(N2CCC(N3CCN(C)CC3)CC2)ccc1Nc1ncc(Cl)c(Nc2ccccc2[S+](=O)([O-])C(C)C)n1
cell viability [1]: 106% | cell viability [2]: 101% | cell viability [3]: 129% | cell viability [4]: 140% | cell viability [5]: 142% | cell viability [6]: 136% | cell viability [7]: 144% | cell viability [8]: 104% | cell viability [9]: 23.6% | cell viability [10]: 12.2% | cell viability [11]: 31.5% | cell viability [12]: 83.4% | cell viability [13]: 87.1% | cell viability [14]: 138% | cell viability [15]: 149% | cell viability [16]: 159% | cell viability [17]: 151% | cell viability [18]: 147% | cell viability [19]: 104% | cell viability [20]: 33.7% | cell viability [21]: 37.4% | cell viability [22]: 40.3% | cell viability [23]: 99.3% | cell viability [24]: 88.2% | cell viability [25]: 146% | cell viability [26]: 161% | cell viability [27]: 177% | cell viability [28]: 171% | cell viability [29]: 161% | cell viability [30]: 150% | cell viability [31]: 53.3% | cell viability [32]: 58% | cell viability [33]: 65.5%

CC(C)(C)[C@]1(O)C[C@@H]2OC(=O)C[C@@]23C(=O)O[C@@H]2OC(=O)[C@H](O)C213 (some centres not stated)
cell viability [1]: 121% | cell viability [2]: 127% | cell viability [3]: 121% | cell viability [4]: 126% | cell viability [5]: 118% | cell viability [6]: 112% | cell viability [7]: 118% | cell viability [8]: 108% | cell viability [9]: 109% | cell viability [10]: 114% | cell viability [11]: 106% | cell viability [12]: 128% | cell viability [13]: 121% | cell viability [14]: 113% | cell viability [15]: 136% | cell viability [16]: 118% | cell viability [17]: 122% | cell viability [18]: 118% | cell viability [19]: 105% | cell viability [20]: 116% | cell viability [21]: 108% | cell viability [22]: 113% | cell viability [23]: 120% | cell viability [24]: 129% | cell viability [25]: 124% | cell viability [26]: 130% | cell viability [27]: 119% | cell viability [28]: 116% | cell viability [29]: 119% | cell viability [30]: 105% | cell viability [31]: 118% | cell viability [32]: 116% | cell viability [33]: 112%

COc1ccc(/C=C/C(=O)Nc2ccccc2C(=O)O)cc1OC
cell viability [1]: 110% | cell viability [2]: 111% | cell viability [3]: 108% | cell viability [4]: 112% | cell viability [5]: 121% | cell viability [6]: 108% | cell viability [7]: 93.1% | cell viability [8]: 100% | cell viability [9]: 108% | cell viability [10]: 99.3% | cell viability [11]: 102% | cell viability [12]: 112% | cell viability [13]: 108% | cell viability [14]: 113% | cell viability [15]: 115% | cell viability [16]: 113% | cell viability [17]: 101% | cell viability [18]: 107% | cell viability [19]: 106% | cell viability [20]: 107% | cell viability [21]: 105% | cell viability [22]: 102% | cell viability [23]: 103% | cell viability [24]: 101% | cell viability [25]: 113% | cell viability [26]: 114% | cell viability [27]: 111% | cell viability [28]: 110% | cell viability [29]: 98.5% | cell viability [30]: 80.4% | cell viability [31]: 103% | cell viability [32]: 98.5% | cell viability [33]: 94.8%
